# Patent US9522920B2, “Bromodomain inhibitors and uses thereof” (Constellation Pharmaceuticals, Inc., priority 2010, dated 2016)
# pIC50: −log10 of the molar value. Like-named read-outs stand apart in the source and are kept apart here.
# Tests used:
# IL-6 secretion = assay: Cell-based IL-6 quantification assay (ELISA, Mesoscale) in LPS-stimulated THP-1 cells; details: read-out: IL6
# Method: 100,000 THP-1 cells were seeded in RPMI1640-10% FBS in 96-well plates. LPS (E. Coli Invitrogen) in RPMI-10% FBS at a final concentration of 4 μg/mL was added to the wells and the cells are then incubated in the presence of various concentrations of compounds for 16 h. Plates are spun ([…], 5 min), an aliquot of 25 uL supernatant is transferred in to an ELISA plate (Mesoscale technology, MSD) and the detection of IL-6 is performed using manufacturer's instructions. The amount of cells in each well is assessed using CellTiter-Glo® (Promega). The ratio of ELISA value/CellTiter-Glo value is used to calculate the percent of inhibition of IL-6 secretion.
# MYC mRNA [1] = assay: cMyc RNA quantification assay (QuantiGene) in MV4:11 cells; format: cell-based; details: Homo sapiens, MV4-11, 4 h, Table 14, MV4:11 cells, read-out: MYC-MV411
# Method: (§1) MV4:11 (AML) or Raji (Burkitt's lymphoma) cells were seeded in a 96-well plate and incubated in the presence of various concentrations of compounds for 4 h. Relative mRNA levels were quantitated by using QuantiGene 2.0 assay (Affymetrix) according to the manufacturer's recommendation. Signals were detected by using an Envision plate reader (Perkin-Elmer). Biological duplicates were averaged and normalized to vehicle (DMSO) control to calculate percent MYC mRNA levels.
# BRD4(BD1) = target: T1, BRD4(BD1) (Homo sapiens, UniProt O60885); assay: BRD4 AlphaLisa binding assay (Alphascreen)
# T1 construct: His; made in house
# Method: Specifically, in a 384 well ProxiPlate BRD4(BD1) (30 nM final) was combined with peptide (200 nM final) in 40 mM HEPES (pH 7.0), 40 mM NaCl, 1 mM DTT, 0.01% (w/v) BSA, and 0.008% (w/v) Brij-35 either in the presence of DMSO (final 1.2% DMSO) or compound dilution series in DMSO. After 20 minute incubation at room temperature Alpha streptavidin donor beads and AlphaLisa anti-Flag acceptor beads were added to a final concentration of 10 ug/mL each. After three hours equilibration plates were read on an Envision instrument and IC50s calculated using a four parameter non-linear curve fit.
# MYC mRNA [2] = assay: cMyc RNA quantification assay (QuantiGene) in Raji cells; format: cell-based; details: Table 7, Raji (Burkitt's lymphoma) cells, 4 h
# Method: as §1
# [3] = Homo sapiens, THP-1, 16 h, Table 14, THP-1 cells, LPS, 16 h
# [4] = Table 14, BRD4 AlphaLisa Binding Assay, read-out: Alpha screen
# [5] = Table 6, BRD4(BD1) 30 nM, H4-tetraacetyl peptide 200 nM, read-out: BRD4 Alphascreen IC50
# [6] = Table 7, THP-1 cells, LPS 4 μg/mL, 16 h, normalised to CellTiter-Glo
# [7] = Homo sapiens, THP-1, 16 h, Table 7, THP-1 cells, LPS 4 μg/mL, 16 h, normalised to CellTiter-Glo
pIC50 (IL-6 secretion; [3]),pIC50 (MYC mRNA [1]),pIC50 (BRD4(BD1); [4]),SMILES,other results
> 6.30,> 6.30,,"Cc1noc2c1-c1ccc(-c3ccc(N)nc3)cc1C(c1ccc(F)cc1)=NC21CC1 [Compound 251, 5-(6-(4-Fluorophenyl)-1-methylspiro[benzo[c]isoxazolo[4,5-e]azepine-4,1′-cyclopropan]-8-yl)pyridin-2-amine]",
< 6.00,< 6.00,< 6.00,"Cc1noc2c1-c1ccccc1C(c1ccc(Cl)cc1)=N[C@H]2CC(C)(C)O [Compound 223, 1-((4S)-6-(4-chlorophenyl)-1-methyl-4H-benzo[c]isoxazolo[4,5-e]azepin-4-yl)-2-methylpropan-2-ol]",
> 6.30,> 6.30,> 6.30,"CCNC(=O)NC1N=C(c2ccc(Cl)cc2)c2ccccc2-c2c(C)noc21 (stereo not shown) [Compound 245, 1-(6-(4-chlorophenyl)-1-methyl-4H-benzo[c]isoxazolo[4,5-e]azepin-4-yl)-3-ethylurea]",
< 6.00,< 6.00,< 6.00,"CNc1ccc2c(n1)-c1c(C)noc1CN=C2c1ccc(Cl)cc1 [Compound 221, 5-(4-Chlorophenyl)-N,10-dimethyl-7H-isoxazolo[5,4-c]pyrido[2,3-e]azepin-2-amine]",
< 6.00,< 6.00,< 6.00,"Cc1noc2c1-c1ccnc(Oc3ccccc3)c1C(c1ccc(Cl)cc1)=NC2 [Compound 229, 6-(4-Chlorophenyl)-1-methyl-7-phenoxy-4H-isoxazolo[5,4-c]pyrido[4,3-e]azepine]",
> 6.30,> 6.30,> 6.30,Cc1noc2c1-c1ccc(C#N)cc1C(c1ccc(Cl)cc1)=N[C@H]2CC(N)=O [Compound 224],
> 6.30,> 6.30,> 6.30,Cc1noc2c1-c1ccccc1C(c1ccc(C3(O)CC3)cc1)=N[C@H]2CC(N)=O [Compound 226],
> 6.30,> 6.30,> 6.30,"Cc1noc2c1-c1ccnc(N)c1C(c1ccc(Cl)cc1)=N[C@H]2CC(N)=O [Compound 222, 2-((4S)-7-Amino-6-(4-chlorophenyl)-1-methyl-4H-isoxazolo[5,4-c]pyrido[4,3-e]azepin-4-yl)acetamide]",
> 6.30,> 6.30,> 6.30,"COc1ccc2c(c1)C(c1ccc(Cl)cc1)=N[C@@H](CC(N)=O)c1onc(C)c1-2 [Compound 217, 2-((4S)-6-(4-chlorophenyl)-8-methoxy-1-methyl-4H-benzo[c]isoxazolo[4,5-e]azepin-4-yl)acetamide]",
> 6.30,> 6.30,> 6.30,Cc1noc2c1-c1ccccc1C(c1ccc(Cl)cc1)=N[C@H]2CC(=O)NCCO [Compound 214],
> 6.30,6.00 to 6.30,> 6.30,"Cc1noc2c1-c1ccc(N3CCCC3)nc1C(c1ccc(Cl)cc1)=NC2 [Compound 247, 6-(4-Chlorophenyl)-1-methyl-8-(pyrrolidin-1-yl)-4H-isoxazolo[5,4-c]pyrido[3,2-e]azepine]",
> 6.30,> 6.30,> 6.30,Cc1noc2c1-c1ccc(F)cc1C(c1ccc(C#N)cc1)=N[C@H]2CC(N)=O [Compound 212],
< 6.00,< 6.00,< 6.00,"Cc1noc2c1-c1nc(Cl)ccc1C(c1ccc(Cl)cc1)=NC2 [Compound 227, 2-Chloro-5-(4-chlorophenyl)-10-methyl-7H-isoxazolo[5,4-c]pyrido[2,3-e]azepine]",
> 6.30,6.00 to 6.30,> 6.30,Cc1noc2c1-c1ccc(Cl)cc1C(c1ccc(F)cc1)=N[C@H]2CC(N)=O [Compound 211],
< 6.00,< 6.00,< 6.00,"Cc1noc2c1-c1[nH]c(=O)ccc1C(c1ccc(Cl)cc1)=NC2 [Compound 220, 5-(4-Chlorophenyl)-10-methyl-1H-isoxazolo[5,4-c]pyrido[2,3-e]azepin-2(7H)-one]",
< 6.00,< 6.00,< 6.00,"Cc1noc2c1-c1ccccc1C(c1ccc(F)cc1)=NC2C(F)(F)F (stereo not shown) [Compound 238, 6-(4-fluorophenyl)-1-methyl-4-(trifluoromethyl)-4H-benzo[c]isoxazolo[4,5-e]azepine]",
< 6.00,< 6.00,< 6.00,"Cc1noc2c1-c1ccc(Cl)nc1C(c1ccc(Cl)cc1)=NC2 [Compound 240, 8-Chloro-6-(4-chlorophenyl)-1-methyl-4H-isoxazolo[5,4-c]pyrido[3,2-e]azepine]",

pIC50 (IL-6 secretion; [3]),pIC50 (MYC mRNA [1]),pIC50 (BRD4(BD1); [4]),SMILES,other results
< 6.00,< 6.00,6.00 to 6.30,"COc1ccc2c(n1)C(c1ccc(Cl)cc1)=NCc1onc(C)c1-2 [Compound 242, 6-(4-Chlorophenyl)-8-methoxy-1-methyl-4H-isoxazolo[5,4-c]pyrido[3,2-e]azepine]",
6.00 to 6.30,6.00 to 6.30,> 6.30,Cc1noc2c1-c1ccc(-c3ccc(C(=O)O)cc3)cc1C(c1ccc(F)cc1)=N[C@H]2CC(N)=O [Compound 234],
< 6.00,< 6.00,6.00 to 6.30,"Cc1noc2c1-c1ccc(=O)[nH]c1C(c1ccc(Cl)cc1)=NC2 [Compound 243, 6-(4-Chlorophenyl)-1-methyl-4H-isoxazolo[5,4-c]pyrido[3,2-e]azepin-8(7H)-one]",
> 6.30,6.00 to 6.30,> 6.30,Cc1noc2c1-c1ccc(Cl)cc1C(c1ccc(F)cc1)=N[C@H]2C [Compound 230],
> 6.30,> 6.30,> 6.30,Cc1noc2c1-c1ccc(-c3ccc(N)nc3)cc1C(c1ccc(F)cc1)=N[C@H]2C [Compound 231],
> 6.30,> 6.30,> 6.30,"CCOC(=O)NC1N=C(c2ccc(Cl)cc2)c2ccccc2-c2c(C)noc21 (single isomer, unassigned) [Compound 253, Ethyl (6-(4-chlorophenyl)-1-methyl-4H-benzo[c]isoxazolo[4,5-e]azepin-4-yl)carbamate]",
> 6.30,> 6.30,> 6.30,Cc1noc2c1-c1ccc(-c3ccc(N)nc3)cc1C(c1ccc(Cl)cc1)=N[C@H]2CC(N)=O [Compound 213],
< 6.00,< 6.00,6.00 to 6.30,"Cc1noc2c1-c1ccc(=O)n(C)c1C(c1ccc(Cl)cc1)=NC2 [Compound 246, 6-(4-Chlorophenyl)-1,7-dimethyl-4H-isoxazolo[5,4-c]pyrido[3,2-e]azepin-8(7H)-one]",
< 6.00,< 6.00,,"Cc1noc2c1-c1ccc(Cl)cc1C(c1ccc(F)cc1)=NC21CC1 [Compound 250, 8-Chloro-6-(4-fluorophenyl)-1-methylspiro[benzo[c]isoxazolo[4,5-e]azepine-4,1′-cyclopropane]]",
,,,Cc1noc2c1-c1ccc(Cl)cc1C(c1ccc(Cl)cc1)=N[C@H]2CC(N)=O [Compound 141],pIC50 (BRD4(BD1); [5]): > 6.30; pIC50 (IL-6 secretion; [6]): > 6.30; pIC50 (MYC mRNA [2]): < 6.00
,,,"CNc1nccc2c1C(c1ccc(Cl)cc1)=NCc1onc(C)c1-2 [Compound 173, 6-(4-Chlorophenyl)-N,1-dimethyl-4H-isoxazolo[5,4-c]pyrido[4,3-e]azepin-7-amine]",pIC50 (BRD4(BD1); [5]): > 6.30; pIC50 (IL-6 secretion; [7]): > 6.30; pIC50 (MYC mRNA [2]; Homo sapiens): > 6.30
,,,Cc1noc2c1-c1sc(C)c(C)c1C(c1ccc(N)nc1)=NC2CC(N)=O (stereo not shown) [Compound 102],pIC50 (BRD4(BD1); [5]): > 6.30; pIC50 (IL-6 secretion; [7]): > 6.30; pIC50 (MYC mRNA [2]; Homo sapiens): > 6.30
,,,COc1cccc(C2=N[C@@H](CC(N)=O)c3onc(C)c3-c3ccccc32)c1 [Compound 147],pIC50 (BRD4(BD1); [5]): > 6.30; pIC50 (IL-6 secretion; [6]): > 6.30; pIC50 (MYC mRNA [2]): 6.00 to 6.30
,,,"Cc1noc2c1-c1ccnc(N(C)C)c1C(c1ccc(Cl)cc1)=NC2 [Compound 175, 6-(4-Chlorophenyl)-N,N,1-trimethyl-4H-isoxazolo[5,4-c]pyrido[4,3-e]azepin-7-amine]",pIC50 (BRD4(BD1); [5]): > 6.30; pIC50 (IL-6 secretion; [7]): 6.00 to 6.30; pIC50 (MYC mRNA [2]; Homo sapiens): < 6.00
,,,"Cc1noc2c1-c1sc(C)c(C)c1C(Oc1ccccc1)=N[C@H]2CC(N)=O [Compound 186, 2-((6S)-2,3,9-trimethyl-4-phenoxy-6H-isoxazolo[5,4-c]thieno[2,3-e]azepin-6-yl)acetamide]","pIC50 (BRD4(BD1); [5]): 6.00 to 6.30; pIC50 (IL-6 secretion; Homo sapiens, THP-1, 16 h): 6.00 to 6.30; pIC50 (MYC mRNA [2]; Homo sapiens): < 6.00"
,,,Cc1noc2c1-c1cccc(Cl)c1C(c1ccncc1)=N[C@H]2CC(N)=O [Compound 137],pIC50 (BRD4(BD1); [5]): > 6.30; pIC50 (IL-6 secretion; [7]): > 6.30; pIC50 (MYC mRNA [2]; Homo sapiens): 6.00 to 6.30
